Laboratory results: the CheMixHub viscosity set

Assay: xn = mol fraction of the nth substance listed

CCCCCCCCCCC + CCCCC
viscosity [mPa·s]
Settings	293.15 K	298.15 K	303.15 K	308.15 K	313.15 K	318.15 K	323.15 K
100 kPa, x2 = 0.1034	1.033	0.957	0.887	0.825	0.77	0.721	0.677
100 kPa, x2 = 0.2018	0.906	0.842	0.784	0.732	0.686	0.645	0.607
100 kPa, x2 = 0.3079	0.774	0.723	0.676	0.634	0.597	0.563	0.531
100 kPa, x2 = 0.3996	0.689	0.645	0.606	0.571	0.538	0.509	0.483
100 kPa, x2 = 0.5027	0.594	0.556	0.523	0.494	0.468	0.444	0.422
100 kPa, x2 = 0.6106	0.488	0.461	0.437	0.415	0.395	0.376	0.366
100 kPa, x2 = 0.702	0.427	0.405	0.386	0.368	0.358	–	–
100 kPa, x2 = 0.8003	0.359	0.341	0.324	0.308	–	–	–
100 kPa, x2 = 0.8988	0.287	0.273	0.259	–	–	–	–
101.33 kPa, x2 = 0.0962	–	0.9653	–	–	–	–	–
101.33 kPa, x2 = 0.1826	–	0.8798	–	–	–	–	–
101.33 kPa, x2 = 0.274	–	0.7841	–	–	–	–	–
101.33 kPa, x2 = 0.368	–	0.6944	–	–	–	–	–
101.33 kPa, x2 = 0.4834	–	0.5825	–	–	–	–	–
101.33 kPa, x2 = 0.5738	–	0.5061	–	–	–	–	–
101.33 kPa, x2 = 0.6599	–	0.4333	–	–	–	–	–
101.33 kPa, x2 = 0.7461	–	0.3731	–	–	–	–	–
101.33 kPa, x2 = 0.8967	–	0.2805	–	–	–	–	–

CCCCCCCCCCC + CCCCCCCCCCCC
298.15 K, 101.33 kPa
Settings	viscosity [mPa·s]
x1 = 0.106	1.314
x1 = 0.2057	1.297
x1 = 0.3093	1.253
x1 = 0.4136	1.236
x1 = 0.5553	1.196
x1 = 0.6095	1.175
x1 = 0.7174	1.143
x1 = 0.8145	1.126
x1 = 0.9084	1.11

CN1CCC[C@H]1c1cccnc1 + CCCC(=O)O
viscosity [mPa·s], 101 kPa
Settings	298.15 K	323.15 K
x1 = 0.099	11.74	5.188
x1 = 0.1992	48.69	14.24
x1 = 0.2139	52.39	14.9
x1 = 0.2277	53.82	15.04
x1 = 0.234	53.97	15.13
x1 = 0.2478	54.2	14.99
x1 = 0.2707	53.87	14.89
x1 = 0.2993	50.77	13.9
x1 = 0.3872	29.61	9.46
x1 = 0.5011	17.55	–
x1 = 0.6081	11.63	4.462
x1 = 0.697	8.404	3.766
x1 = 0.804	6.265	2.983
x1 = 0.8928	5.192	2.579

CN1CCC[C@H]1c1cccnc1 + CCC(C)=O
viscosity [mPa·s], 101 kPa
Settings	x1 = 0.1253	x1 = 0.2463	x1 = 0.3642	x1 = 0.4878	x1 = 0.6133	x1 = 0.7374	x1 = 0.883
298.15 K	0.5454	0.7187	0.9572	1.246	1.646	2.2	3.069
323.15 K	0.4075	0.5104	0.6647	0.8283	1.041	1.316	1.767

CCN(CC)CC(=O)Nc1c(C)cccc1C + CC(C)[C@@H]1CC[C@@H](C)C[C@H]1O
100 kPa, x2 = 0.667
Settings	viscosity [mPa·s]
293.15 K	69.38
298.15 K	45.91
303.15 K	31.73
308.15 K	22.78
313.15 K	16.87
318.15 K	12.85
323.15 K	10.02

OCCCO + CC#N
viscosity [mPa·s], 100 kPa
Settings	x2 = 0.1027	x2 = 0.2001	x2 = 0.3048	x2 = 0.4057	x2 = 0.5001	x2 = 0.6001	x2 = 0.6993	x2 = 0.8002	x2 = 0.8956
293.15 K	31.4	19.6	11.4	6.84	4.12	2.59	1.59	0.92	0.58
298.15 K	24.7	14.5	8.12	4.69	2.89	1.91	1.23	0.73	0.47
303.15 K	19.4	11.2	5.78	3.33	2.21	1.37	0.89	0.58	0.39

CC(C)C#N + Cc1ccccc1
viscosity [mPa·s], 101 kPa
Settings	x2 = 0.1025	x2 = 0.2009	x2 = 0.2987	x2 = 0.4001	x2 = 0.4983	x2 = 0.6008	x2 = 0.6993	x2 = 0.801	x2 = 0.8983
303.15 K	0.463	0.465	0.468	0.474	0.481	0.49	0.499	0.509	0.517
308.15 K	0.434	0.437	0.439	0.445	0.45	0.46	0.468	0.478	0.486

OCCCl + OCCO
293.15 K, 101.33 kPa
Settings	viscosity [mPa·s]
x2 = 0.1328	4.422
x2 = 0.2605	5.484
x2 = 0.3003	5.879
x2 = 0.3636	6.593
x2 = 0.4644	7.922
x2 = 0.5437	9.223
x2 = 0.6211	10.66
x2 = 0.6983	12.26
x2 = 0.7424	13.29
x2 = 0.8141	15.21
x2 = 0.8422	15.98
x2 = 0.9168	18.26

CCCCCCCCCCC + CCCCCCCCC
298.15 K, 101.33 kPa
Settings	viscosity [mPa·s]
x2 = 0.1034	1.03
x2 = 0.2088	0.9658
x2 = 0.3024	0.931
x2 = 0.4073	0.8929
x2 = 0.5057	0.8476
x2 = 0.6037	0.8141
x2 = 0.7055	0.77
x2 = 0.8002	0.7331
x2 = 0.9038	0.687

N#C[C-](C#N)C#N.OCC[n+]1ccccc1 + c1ccsc1
Settings	viscosity [mPa·s]
313.15 K, 101 kPa, x1 = 0.4042	9.96

OCCCO + O
Settings	viscosity [mPa·s]
293.15 K, 101.33 kPa, x1 = 0.1597	5.035
298.15 K, 101 kPa, x1 = 0.0743	1.975
298.15 K, 101 kPa, x1 = 0.1661	4.203
298.15 K, 101 kPa, x1 = 0.2338	6.223
298.15 K, 101 kPa, x1 = 0.3007	8.667
298.15 K, 101 kPa, x1 = 0.3965	12.43
298.15 K, 101 kPa, x1 = 0.4726	15.67
298.15 K, 101 kPa, x1 = 0.5649	19.7
298.15 K, 101 kPa, x1 = 0.6713	24.72
298.15 K, 101 kPa, x1 = 0.7492	28.53
298.15 K, 101 kPa, x1 = 0.8137	32
298.15 K, 101 kPa, x1 = 0.9572	39.94
298.15 K, 101.3 kPa, x2 = 0.0622	37.15
308.15 K, 101 kPa, x1 = 0.095	1.65
308.15 K, 101 kPa, x1 = 0.1968	4.202
308.15 K, 101 kPa, x1 = 0.3019	6.937
308.15 K, 101 kPa, x1 = 0.4108	9.362
308.15 K, 101 kPa, x1 = 0.495	11.66
308.15 K, 101 kPa, x1 = 0.6009	14.63
308.15 K, 101 kPa, x1 = 0.692	17.5
308.15 K, 101 kPa, x1 = 0.7938	20.41
308.15 K, 101 kPa, x1 = 0.9232	24.43
313.15 K, 101.33 kPa, x1 = 0.5449	11.05
323.15 K, 101.33 kPa, x1 = 0.7523	11.15
